Test results: US20240000767A1, “COMBINATION OF AN ALPHA2-ADRENOCEPTOR SUBTYPE C (ALPHA-2C) ANTAGONIST WITH A TASK1/3 CHANNEL BLOCKER FOR THE TREATMENT OF SLEEP APNEA” (Bayer Aktiengesellschaft, priority 2020, published 2024)

What follows are compounds tested against human ADRA2C receptor (Homo sapiens (Human), UniProt P18825) (assay: In vitro activity assay to determine the inhibition of recombinant ADRA2C (CHO-K1 cells, aequorin bioluminescence)). Settings: inhibition of noradrenaline-induced bioluminescence signal; some mean values from multiple determinations; read-out: ARα2C IC50.
Format: cell-based
Description: B-2. In Vitro Activity Assay to Determine the Inhibition of Recombinant ADRA2C
The human ADRA2C receptor belongs to the G protein(guanine-dependent protein)-coupled receptors, the main function of which is the transduction of signals into the interior of the cell.
The investigations of the inhibition of the recombinant human ADRA2C receptors were carried out with stabily transfected CHO-K1 cells coexpressing the Gaq protein and the calcium-sensitive photoprotein aequorin. In this recombinant system, binding of the agonists noradrenaline to the ADRA2C receptor leads, after activation of a signal cascade, to calcium release from intracellular stores, which is detected by the intracellular calcium sensor aequorin as a bioluminescent signal. The method is described in detail in the reference below. [Wunder F., Kalthof B., Muller T., Hueser J. Functional Cell-Based Assays in Microliter Volumes for Ultra-High Throughput Screening. Combinatorial Chemistry & High Throughput Screening, Volume 11, Number 7, 2008, pp. 495-504(10). doi.org/10.2174/138620708785204054]
The activity of the test substances was determined via their ability to inhibit the agonist-induced increase of the bioluminescence signal. The concentration which can block half of this signal increase is referred to as IC50. The IC50 value is calculated using the 4 parameter logistic function (Hill function):
Top=upper threshold, Bottom=lower threshold, Slope=slope, IC50=turning point

Sequence of human ADRA2C receptor (P18825 whole entry): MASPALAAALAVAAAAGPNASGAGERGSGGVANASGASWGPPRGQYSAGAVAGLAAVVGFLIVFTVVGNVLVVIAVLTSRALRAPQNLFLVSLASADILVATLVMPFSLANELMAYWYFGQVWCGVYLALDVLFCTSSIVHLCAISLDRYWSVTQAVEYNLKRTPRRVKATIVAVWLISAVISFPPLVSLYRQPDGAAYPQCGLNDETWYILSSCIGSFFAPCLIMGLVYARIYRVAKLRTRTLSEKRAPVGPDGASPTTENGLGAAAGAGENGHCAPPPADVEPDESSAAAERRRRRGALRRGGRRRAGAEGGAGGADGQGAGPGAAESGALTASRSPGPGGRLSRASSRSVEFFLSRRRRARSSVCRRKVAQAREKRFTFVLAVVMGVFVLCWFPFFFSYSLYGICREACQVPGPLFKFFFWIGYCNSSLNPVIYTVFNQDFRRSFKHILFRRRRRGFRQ

SMILES | IC50
C[C@@H]1CCCN(C2CCN(c3ncc(C(=O)NCc4cccc(O)c4)s3)CC2)C1 [Example 82] | 102 nM
C[C@@H]1CCCN(C2CCN(c3nc(C(=O)NCc4ncc(F)cc4F)cs3)CC2)C1 [Example 10, N-[(3,5-difluoropyridin-2-yl)methyl]-2-[(3R)-3-methyl[1,4′-bipiperidin]-1′-yl]-1,3-thiazole-4-carboxamide] | 21.4 nM
O=C(NCc1ncc(F)cc1F)c1cnc(N2CCC(N3CCCC(COCC(F)(F)F)C3)CC2)s1 (racemic) [Example 59, rac-N-[(3,5-Difluoropyridin-2-yl)methyl]-2-{3-[(2,2,2-trifluoroethoxy)methyl][1,4′-bipiperidin]-1′-yl}-1,3-thiazole-5-carboxamide] | 11 nM
O=C(NCc1ncc(F)cc1F)c1cnc(N2CCC(N3CCc4ccccc4C3)CC2)s1 [Example 2, N-[(3,5-Difluoropyridin-2-yl)methyl]-2-[4-(3,4-dihydroisoquinolin-2(1H)-yl)piperidin-1-yl]-1,3-thiazole-5-carboxamide] | 5.2 nM
CC1(C)CCCN(C2CCN(c3ncc(C(=O)NCc4ncc(F)cc4F)s3)CC2)C1 [Example 63, N-[(3,5-Difluoropyridin-2-yl)methyl]-2-(3,3-dimethyl[1,4′-bipiperidin]-1′-yl)-1,3-thiazole-5-carboxamide] | 570 nM
C[C@@H]1CCCN(C2CCN(c3ncc(C(=O)NCc4cc(Cl)ccc4F)s3)CC2)C1 [Example 21, N-(5-Chloro-2-fluorobenzyl)-2-[(3R)-3-methyl[1,4′-bipiperidin]-1′-yl]-1,3-thiazole-5-carboxamide] | 7.2 nM
O=C(NCc1ncc(F)cc1F)c1cnc(N2CCC(N3CCCC4(C3)CC4(F)F)CC2)s1 (racemic) [Example 65, rac-2-[4-(1,1-Difluoro-5-azaspiro[2.5]octan-5-yl)piperidin-1-yl]-N-[(3,5-difluoropyridin-2-yl)methyl]-1,3-thiazole-5-carboxamide] | 4.5 nM
C[C@@H]1CCCN(C2CCN(c3ncc(C(=O)NCc4ncc(Cl)s4)s3)CC2)C1 [Example 56, N-[(5-Chloro-1,3-thiazol-2-yl)methyl]-2-[(3R)-3-methyl[1,4′-bipiperidin]-1′-yl]-1,3-thiazole-5-carboxamide] | 240 nM
CC(NC(=O)c1cnc(N2CCC(N3CCC[C@@H](C)C3)CC2)s1)c1cc(F)ccc1F (single isomer, unassigned) [Example 47] | 25 nM
C[C@@H]1CCCN(C2CCN(c3ncc(C(=O)Nc4ccccc4C4CC4)s3)CC2)C1 [Example 93] | 630 nM
C[C@@H]1CCCN(C2CCN(c3ncc(C(=O)NCc4cc(F)ccc4Cl)s3)CC2)C1 [Example 34, N-(2-chloro-5-fluorobenzyl)-2-[(3R)-3-methyl[1,4′-bipiperidin]-1′-yl]-1,3-thiazole-5-carboxamide] | 640 nM
C[C@@H]1CCCN(C2CCN(c3ncc(C(=O)NCc4cccc(C(F)(F)F)c4)s3)CC2)C1 [Example 19, 2-[(3R)-3-Methyl[1,4′-bipiperidin]-1′-yl]-N-[3-(trifluoromethyl)benzyl]-1,3-thiazole-5-carboxamide] | 690 nM
CC(F)CCOCC1CCCN(C2CCN(c3ncc(C(=O)NCc4ncc(F)cc4F)s3)CC2)C1 (stereo not shown) [Example 74, diamix-N-[(3,5-Difluoropyridin-2-yl)methyl]-2-[3-({[3-fluorobutyl]oxy}methyl)[1,4′-bipiperidin]-1′-yl]-1,3-thiazole-5-carboxamide] | 285 nM
C[C@@H]1CCCN(C2CCN(c3ncc(C(=O)NCc4cccc(OC(F)(F)F)n4)s3)CC2)C1 [Example 32, 2-[(3R)-3-methyl[1,4′-bipiperidin]-1′-yl]-N-{[6-(trifluoromethoxy)pyridin-2-yl]methyl}-1,3-thiazole-5-carboxamide] | 640 nM
O=C(NCc1ncc(F)cc1F)c1cnc(N2CCC(N3CCCC(C(F)F)C3)CC2)s1 (racemic) [Example 4, 2-[3-(difluoromethyl)[1,4′-bipiperidin]-1′-yl]-N-[(3,5-difluoropyridin-2-yl)methyl]-1,3-thiazole-5-carboxamide (racemate)] | 169 nM
C[C@@H]1CCCN(C2CCN(c3ncc(C(=O)NCc4c(Cl)cnn4C)s3)CC2)C1 [Example 79, N-[(4-Chloro-1-methyl-1H-pyrazol-5-yl)methyl]-2-[(3R)-3-methyl[1,4′-bipiperidin]-1′-yl]-1,3-thiazole-5-carboxamide] | 50.3 nM
CCOC1CCCN(C2CCN(c3ncc(C(=O)NCc4ncc(F)cc4F)s3)CC2)C1 (racemic) [Example 70, rac-N-[(3,5-Difluoropyridin-2-yl)methyl]-2-[3-ethoxy[1,4′-bipiperidin]-1′-yl]-1,3-thiazole-5-carboxamide] | 22 nM
C[C@@H]1CCCN(C2CCN(c3ncc(C(=O)NCc4ncc(F)cc4F)s3)CC2F)C1 (single isomer, unassigned) [Example 51] | 150 nM

The remaining lines, values ahead:

IC50 | SMILES
1.2 nM | C[C@@H]1CCCN(C2CCN(c3nc(C(=O)NCc4ncc(F)cc4F)co3)CC2F)C1 (mixture of isomers) [Example 112, diamix-N-[(3,5-Difluoropyridin-2-yl)methyl]-2-[(3R)-3′-fluoro-3-methyl[1,4′-bipiperidin]-1′-yl]-1,3-oxazole-4-carboxamide]
1600 nM | CCc1cc(NC(=O)c2cnc(N3CCC(N4CCC[C@@H](C)C4)CC3)s2)ccn1 [Example 98]
170 nM | C[C@@H]1CCCN(C2CCN(c3ncc(C(=O)NCc4ccccc4Cl)s3)CC2)C1 [Example 151]
6.5 nM | O=C(NCc1ncc(F)cc1F)c1cnc(N2CCC(N3CCCC(C4CCC4)C3)CC2)s1 (stereo not shown) [Example 138]
0.65 nM | CC(NC(=O)c1cnc(N2CCC(N3CCC[C@@H](C)C3)C(F)C2)s1)c1cc(F)ccc1F (mixture of isomers) [Example 117, diamix-N-[1-(2,5-Difluorophenyl)ethyl]-2-[(3R)-3′-fluoro-3-methyl[1,4′-bipiperidin]-1′-yl]-1,3-thiazole-5-carboxamide]
8.4 nM | O=C(NCc1ncc(F)cc1F)c1cnc(N2CCC(N3CCCC(CCF)C3)CC2)s1 (racemic) [Example 127, rac-Formic acid N-[(3,5-difluoropyridin-2-yl)methyl]-2-[3-(2-fluoroethyl)[1,4′-bipiperidin]-1′-yl]-1,3-thiazole-5-carboxamide]
0.65 nM | CCCC1CCCN(C2CCN(c3ncc(C(=O)NCc4ncc(F)cc4F)s3)CC2)C1 (racemic) [Example 121, rac-N-[(3,5-Difluoropyridin-2-yl)methyl]-2-(3-propyl[1,4′-bipiperidin]-1′-yl)-1,3-thiazole-5-carboxamide]
590 nM | COCC1CCCN(C2CCN(c3ncc(C(=O)NCc4ncc(F)cc4F)s3)CC2)C1 (single isomer, unassigned) [Example 99, ent-N-[(3,5-Difluoropyridin-2-yl)methyl]-2-[3-(methoxymethyl) [1,4′-bipiperidin]-1′-yl]-1,3-thiazole-5-carboxamide]
19 nM | O=C(NCc1ncc(F)cc1F)c1cnc(N2CCC(N3CCCC(C4CC4)C3)CC2)s1 (stereo not shown) [Example 137]
10 nM | C[C@@H]1CCCN(C2CCN(c3ncc(C(=O)NC4(c5ncc(F)cc5F)CC4)s3)CC2)C1 [Example 129, N-[1-(3,5-Difluoropyridin-2-yl)cyclopropyl]-2-[(3R)-3-methyl[1,4′-bipiperidin]-1′-yl]-1,3-thiazole-5-carboxamide]
